Test results reported in ChEMBL document CHEMBL5143558, “Synthesis of sorbicillinoid analogues with anti-inflammation activities” (Bioorg Med Chem, 2022).
Active and inactive are the calls of the source. The rule behind the calls is not given here.

Assays:
[1] = Toxicity in mouse RAW264.7 cells assessed as reduction in cell vaibility at 10 uM; format: cell-based; settings: raw264.7, 10 µM
RAW264.7 [2] = assay: Anti-inflammatory activity in mouse RAW264.7 cells assessed as inhibition of LPS-induced NO production at 10 uM; format: functional, cell-based
RAW264.7 [3] = assay: Anti-inflammatory activity in mouse RAW264.7 cells assessed as inhibition of LPS-induced iNOS protein expression at 10 uM incubated for 24 hrs by Western blot analysis; format: functional, cell-based
RAW264.7 [4] = assay: Anti-inflammatory activity in mouse RAW264.7 cells assessed as inhibition of LPS-induced p-NFkappaB protein expression at 10 uM incubated for 24 hrs by Western blot analysis; format: functional, cell-based
RAW264.7 [5] = assay: Anti-inflammatory activity in mouse RAW264.7 cells assessed as inhibition of LPS-induced NO production at 20 uM; format: functional, cell-based
[6] = Toxicity in mouse RAW264.7 cells assessed as reduction in cell vaibility at 20 uM incubated for 24 hrs; format: cell-based; settings: raw264.7, 24 h
RAW264.7 [7] = assay: Anti-inflammatory activity in mouse RAW264.7 cells assessed as inhibition of LPS-induced NO production at 1 to 20 uM incubated for 24 hrs; format: functional, cell-based; settings: dose 1-20 µM, DDE = dose-dependent effect
RAW264.7 [8] = assay: Anti-inflammatory activity in mouse RAW264.7 cells assessed as inhibition of LPS-induced iNOS protein expression at 1 to 20 uM incubated for 24 hrs by Western blot analysis; format: functional, cell-based; settings: dose 1-20 µM, DDE = dose-dependent effect

SMILES | Activity [1] | inhibition (RAW264.7 [2]) | inhibition (RAW264.7 [3]) | inhibition (RAW264.7 [4]) | inhibition (RAW264.7 [5]) | Activity [6] | inhibition (RAW264.7 [7]) | inhibition (RAW264.7 [8])
Cc1ccc(OC(=O)/C=C/c2ccc(Cl)cc2)c(C)c1OC(=O)/C=C/c1ccc(Cl)cc1 | Non-Toxic | Active | Active | – | – | – | – | –
C/C=C/C=C/C(=O)c1cc(C)c(O)c(C)c1O | Non-Toxic | Active | – | Active | – | – | – | –
Cc1cc(C(=O)/C=C/c2ccc(F)cc2)c(O)cc1O | Non-Toxic | Active | Active | – | – | – | – | –
CC(C)=CC(=O)Oc1ccc(C)c(OC(=O)C=C(C)C)c1C | Non-Toxic | – | – | Active | – | – | – | –
Cc1cc(C(=O)CCc2ccccc2)c(O)c(C)c1O | Non-Toxic | – | – | Active | – | – | – | –
COc1cc(O)c(C(=O)/C=C/c2ccccc2)cc1C | Non-Toxic | Active | Active | – | – | – | – | –
COc1cc(/C=C/C(=O)c2cc(C)c(OC)c(C)c2OC)cc(OC)c1OC | Non-Toxic | Active | Active | – | – | – | – | –
Cc1cc(C(=O)/C=C/c2ccccc2)c(O)c(C)c1O | Non-Toxic | Active | Active | Active | – | – | – | –
Cc1cc(C(=O)/C=C/c2ccccc2)c(O)cc1O | Non-Toxic | Active | Active | – | – | – | – | –
COc1ccc(/C=C/C(=O)c2cc(C)c(OC)cc2OC)cc1 | Non-Toxic | – | – | – | – | – | – | –
C/C=C/C(=O)c1cc(C)c(OC)cc1OC | Non-Toxic | Active | Active | – | – | – | – | –
C[C@]12CCC(=O)C=C1CC[C@@H]1[C@@H]2[C@@H](O)C[C@@]2(C)[C@H]1CC[C@]2(O)C(=O)CO | – | – | – | – | Active | – | – | –
C/C=C/C(=O)c1cc(C)c(O)c(C)c1O | Non-Toxic | Active | Active | – | – | – | – | –
C/C=C/C(=O)c1cc(C)c(OC)c(C)c1OC | Non-Toxic | Active | Active | – | – | – | – | –
COc1cc(/C=C/C(=O)c2cc(C)c(O)c(C)c2O)cc(OC)c1OC | Non-Toxic | Active | Active | – | – | Non-Toxic | Dde | Dde
COc1cc(OC)c(C(=O)/C=C/c2ccc(F)cc2)cc1C | Non-Toxic | Active | Active | – | – | – | – | –

SMILES | Activity [1] | inhibition (RAW264.7 [2]) | inhibition (RAW264.7 [3]) | inhibition (RAW264.7 [4]) | inhibition (RAW264.7 [5]) | Activity [6] | inhibition (RAW264.7 [7]) | inhibition (RAW264.7 [8])
COc1cc(OC)c(C(=O)/C=C/c2cc(OC)c(OC)c(OC)c2)cc1C | Non-Toxic | Active | Active | – | – | – | – | –
CC(C)=CC(=O)Oc1c(C)cc(C(=O)C=C(C)C)c(O)c1C | Non-Toxic | Active | Active | – | – | – | – | –
COc1cc(O)c(C(=O)/C=C/c2ccc(F)cc2)cc1C | Non-Toxic | Active | Active | – | – | – | – | –
Cc1cc(C(=O)/C=C/c2ccc3c(c2)OCO3)c(O)c(C)c1O | Non-Toxic | – | Active | – | – | – | – | –
C/C=C/C=C/C(=O)Oc1ccc(C)c(OC(=O)/C=C/C=C/C)c1C | Non-Toxic | – | – | – | – | – | – | –
COc1ccc(/C=C/C(=O)c2cc(C)c(O)c(C)c2O)cc1 | Non-Toxic | Active | Active | – | – | – | – | –
C/C=C/C=C/C(=O)Oc1c(C)cc(C(=O)/C=C/C=C/C)c(O)c1C | Non-Toxic | Active | Active | – | – | – | – | –
C/C=C/C(=O)Oc1c(C)cc(C(=O)/C=C/C)c(O)c1C | Non-Toxic | Active | Active | – | – | – | – | –
COc1cc(/C=C/C(=O)CC(=O)/C=C/c2ccc(O)c(OC)c2)ccc1O | – | – | – | – | Active | – | – | –
Cc1cc(C(=O)/C=C/c2ccc(F)cc2)c(O)c(C)c1O | Non-Toxic | Active | Active | – | – | Non-Toxic | Dde | Dde
Cc1cc(C(=O)/C=C/c2ccc(F)cc2)c(O)c(C)c1OC(=O)/C=C/c1ccc(F)cc1 | Non-Toxic | – | Active | – | – | – | – | –
C/C=C/C(=O)c1cc(C)c(O)cc1O | Non-Toxic | Active | Active | – | – | – | – | –
Cc1ccc(/C=C/C(=O)c2cc(C)c(O)c(C)c2O)cc1 | Non-Toxic | Active | Active | – | – | – | – | –
Cc1cc(C(=O)/C=C/c2ccc(Cl)cc2)c(O)c(C)c1OC(=O)/C=C/c1ccc(Cl)cc1 | Non-Toxic | – | Active | – | – | – | – | –
COc1cc(OC)c(C(=O)/C=C/c2ccccc2)cc1C | Non-Toxic | Active | Active | – | – | – | – | –
